pEC50: −log10 of the molar value.
The compounds below were run on Hepatitis C replicon (assay: HCV replicon assay (NPT ELISA readout) in Huh-7 replicon-containing cells). Conditions: Hepatitis C virus, 72 h; HCV replicon in Huh-7 cells, three days incubation.
Assay type: cell-based, Hepatitis C virus
Outline: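 Huh-7 cells carrying a neo-containing HCV subgenomic replicon (NS3-NS5B) were plated overnight, then exposed to compound (generally 6 concentrations, 10 to 0.03 μM) for three days at 37 °C. Replication was read as NPT level by captured ELISA; interferon alpha served as positive control.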

SMILES	pEC50
O=C1N[C@]2(C(=O)NS(=O)(=O)C3CC3)C[C@H]2/C=C\CCCCC[C@H](CC(=O)N2CCC(F)(F)CC2)C(=O)N2C[C@H](Oc3cc(-c4ccccn4)nc4c5c(ccc34)OCC5)C[C@@H]12 [Compound 82, (2R,6R,14aR,16aS,Z)-N-(cyclopropylsulfonyl)-6-(2-(4,4-difluoropiperidin-1-yl)-2-oxoethyl)-5,16-dioxo-2-(2-(pyridin-2-yl)-8,9-dihydrofuro[2,3-h]quinolin-4-yloxy)-1,2,3,5,6,7,8,9,10,11, 13a,14,14a,15,16,16a-hexadecahydrocyclopropa [e]pyrrolo[1,2-a][1,4] diazacyclopentadecine-14a-carboxamide]	> 6.00
COc1ccc2c(O[C@@H]3C[C@H]4C(=O)N[C@]5(C(=O)NS(=O)(=O)C6CC6)C[C@H]5/C=C\CCCCC[C@H](CC(=O)N5CCCC5C(F)(F)F)C(=O)N4C3)cc(-c3ccccn3)nc2c1Cl (stereo partly drawn) [Compound 95, (2R,6R,14aR,16aS,Z)-2-(8-chloro-7-methoxy-2-(pyridin-2-yl)quinolin-4-yloxy)-N-(cyclopropylsulfonyl)-5,16-dioxo-6-(2-oxo-2-(2-(trifluoromethyl)pyrrolidin-1-yl)ethyl)-1,2,3,5,6,7,8,9,10,11, 13a,14,14a,15,16,16a-hexadecahydrocyclopropa [e]pyrrolo[1,2-a][1,4] diazacyclopentadecine-14a-carboxamide]	> 6.00
COc1ccc2c(O[C@@H]3C[C@H]4C(=O)N[C@]5(C(=O)NS(=O)(=O)C6CC6)C[C@H]5/C=C\CCCCC[C@H](CC(=O)O)C(=O)N4C3)cc(-c3ccccn3)nc2c1Cl [Compound 89, 2-((2R,6R,14aR, 16aS,Z)-2-(8-chloro-7-methoxy-2-(pyridin-2-yl)quinolin-4-yloxy)-14a-(cyclopropylsulfonyl-carbamoyl)-5,16-dioxo-1,2,3,5,6,7,8,9,10,11, 13a,14,14a,15,16,16a-hexadecahydrocyclopropa [e]pyrrolo[1,2-a][1,4]diazacyclopentadecin-6-yl)acetic acid]	> 6.00
COc1ccc2c(O[C@@H]3C[C@H]4C(=O)N[C@]5(C(=O)NS(=O)(=O)C6CC6)C[C@H]5/C=C\CCCCC[C@H](CC(=O)N5CCN(c6cnccn6)CC5)C(=O)N4C3)cc(-c3ccccc3)nc2c1 [Compound 87, (2R,6R,14aR,16aS,Z)-N-(cyclopropylsulfonyl)-2-(7-methoxy-2-phenylquinolin-4-yloxy)-5,16-dioxo-6-(2-oxo-2-(4-(pyrazin-2-yl)piperazin-1-yl)ethyl)-1,2,3,5,6,7,8,9,10,11, 13a,14,14a,15,16,16a-hexadecahydrocyclopropa [e]pyrrolo[1,2-a][1,4] diazacyclopentadecine-14a-carboxamide]	> 6.00
COc1ccc2c(O[C@@H]3C[C@H]4C(=O)N[C@](C)(C(=O)NS(=O)(=O)C5CC5)C/C=C\CCCCC[C@H](CC(=O)N5CCCCC5)C(=O)N4C3)cc(-c3ccccc3)nc2c1 [Compound 66, (3S,12R,16R,17aS,Z)-N-(cyclopropylsulfonyl)-16-(7-methoxy-2-phenylquinolin-4-yloxy)-3-methyl-1,13-dioxo-12-(2-oxo-2-(piperidin-1-yl)ethyl)-2,3,4,7,8,9,10, 11,12,13,15,16,17,17a-tetradecahydro-1H-pyrrolo[1,2-a][1,4] diazacyclopentadecine-3-carboxamide]	5.00 to 6.00
COc1ccc2c(O[C@@H]3C[C@H]4C(=O)N[C@]5(C(=O)NS(=O)(=O)C6CC6)C[C@H]5/C=C\CCCCC[C@H](CC(=O)N5CCCC(F)(F)C5)C(=O)N4C3)nccc2c1Cl [Compound 123, (2R,6R,13aS,16aS, Z)-2-(5-chloro-6-methoxylsoquinolin-1-yloxy)-N-(cyclopropylsulfonyl)-6-(2-(3,3-difluoropiperidin-1-yl)-2-oxoethyl)-5,16-dioxo-1,2,3,5,6,7,8,9,10,11, 13a,14,14a,15,16,16a-hexadecahydrocyclopropa [e]pyrrolo[1,2-a][1,4] diazacyclopentadecine-14a-carboxamide]	< 5.00
COc1ccc2c(O[C@@H]3C[C@H]4C(=O)N[C@]5(C(=O)NS(=O)(=O)C6CC6)C[C@H]5/C=C\CCCCC[C@H](CC(=O)N5CCCCC5)C(=O)N4C3)nccc2c1Cl [Compound 122, (2R,6R,13aS,16aS, Z)-2-(5-chloro-6-methoxylsoquinolin-1-yloxy)-N-(cyclopropylsulfonyl)-5, 16-dioxo-6-(2-oxo-2-(piperidin-1-yl)ethyl)-1,2,3,5,6,7,8,9,10,11, 13a,14,14a,15,16,16a-hexadecahydrocyclopropa [e]pyrrolo[1,2-a][1,4] diazacyclopentadecine-14a-carboxamide]	> 6.00
CCOC(=O)[C@]12C[C@@H]1/C=C\CCCCC[C@H](CC(=O)OC(C)(C)C)C(=O)N1C[C@H](Oc3cc(-c4ccccc4)nc4cc(OC)ccc34)C[C@H]1C(=O)N2 [Compound 47, (2R,6R,13aR,14aS, 16aS,Z)-ethyl 6-(2-tert-butoxy-2-oxoethyl)-2-(7-methoxy-2-phenylquinolin-4-yloxy)-5,16-dioxo-1,2,3,5,6,7,8,9,10,11, 13a,14,14a,15,16,16a-hexadecahydrocyclopropa [e]pyrrolo[1,2-a][1,4] diazacyclopentadecine-14a-carboxylate]	> 6.00
O=C1NC2(C(=O)NS(=O)(=O)C3CC3)CC2/C=C\CCCCC[C@H](CC(=O)N2CCCCC2)C(=O)N2C[C@H](OC(=O)N3Cc4cccc(F)c4C3)C[C@@H]12 (stereo partly drawn) [Compound 50, (2R,6R,16aS,Z)-14a-(cyclopropylsulfonyl-carbamoyl)-5,16-dioxo-6-(2-oxo-2-(piperidin-1-yl)ethyl)-1,2,3,5,6,7,8,9,10,11, 13a,14,14a,15,16,16a-hexadecahydrocyclopropa [e]pyrrolo[1,2-a][1,4] diazacyclopentadecin-2-yl 4-fluoroisoindoline-2-carboxylate]	> 6.00
COc1ccc2c(O[C@@H]3C[C@H]4C(=O)N[C@]5(C(=O)NS(=O)(=O)C6CC6)C[C@H]5/C=C\CCCCC[C@H](CC(=O)N5CCC(C(F)(F)F)CC5)C(=O)N4C3)cc(-c3ccccn3)nc2c1C [Compound 117, (2R,6R,14aR,16aS,Z)-N-(cyclopropylsulfonyl)-2-(7-methoxy-8-methyl-2-(pyridin-2-yl)quinolin-4-yloxy)-5, 16-dioxo-6-(2-oxo-2-(4-(trifluoromethyl)piperidin-1-yl)ethyl)-1,2,3,5,6,7,8,9,10,11, 13a,14,14a,15,16,16a-hexadecahydrocyclopropa [e]pyrrolo[1,2-a][1,4] diazacyclopentadecine-14a-carboxamide]	< 5.00
CO/N=C1\CN(C(=O)C[C@H]2CCCCC/C=C\[C@@H]3C[C@@]3(C(=O)NS(=O)(=O)C3CC3)NC(=O)[C@@H]3C[C@@H](Oc4cc(-c5ccccc5)nc5cc(OC)ccc45)CN3C2=O)CC1(C)CN (stereo partly drawn) [Compound 110, (2R,6R,14aR,16aS,Z)-6-(2-((Z)-3-(aminomethyl)-4-(methoxyimino)-3-methylpyrrolidin-1-yl)-2-oxoethyl)-N-(cyclopropylsulfonyl)-2-(7-methoxy-2-phenylquinolin-4-yloxy)-5,16-dioxo-1,2,3,5,6,7,8,9,10,11, 13a,14,14a,15,16,16a-hexadecahydrocyclopropa [e]pyrrolo[1,2-a][1,4] diazacyclopentadecine-14a-carboxamide]	> 6.00
O=C1N[C@]2(C(=O)NS(=O)(=O)C3CC3)CC2/C=C\CCCCC[C@H](CC(=O)N2CCC(C(F)(F)F)CC2)C(=O)N2C[C@H](OC(=O)N3CCc4ccccc4C3)C[C@@H]12 (stereo partly drawn) [Compound 115, (2R,6R,14aR, 16aS,Z)-14a-(cyclopropylsulfonyl-carbamoyl)-5,16-dioxo-6-(2-oxo-2-(4-(trifluoromethyl)piperidin-1-yl)ethyl)-1,2,3,5,6,7,8,9,10,11, 13a,14,14a,15,16,16a-hexadecahydrocyclopropa [e]pyrrolo[1,2-a][1,4] diazacyclopentadecin-2-yl 3,4-dihydroisoquinoline-2(1H)-carboxylate]	> 6.00
COc1ccc2c(O[C@@H]3C[C@H]4C(=O)N[C@]5(C(=O)NS(=O)(=O)C6CC6)C[C@H]5/C=C\CCCCC[C@H](CC(=O)N[C@@H]5CCNC5)C(=O)N4C3)cc(-c3ccccc3)nc2c1 [Compound 109, (2R,6R,14aR,16aS,Z)-N-(cyclopropylsulfonyl)-2-(7-methoxy-2-phenylquinolin-4-yloxy)-5,16-dioxo-6-(2-oxo-2-((R)-pyrrolidin-3-ylamino)ethyl)-1,2,3,5,6,7,8,9,10,11, 13a,14,14a,15,16,16a-hexadecahydrocyclopropa [e]pyrrolo[1,2-a][1,4] diazacyclopentadecine-14a-carboxamide]	> 6.00
COc1ccc2c(O[C@@H]3C[C@H]4C(=O)N[C@]5(C(=O)NS(=O)(=O)C6CC6)C[C@H]5/C=C\CCCCC[C@H](CC(=O)N5CCN(C(=O)N6CCCC6)CC5)C(=O)N4C3)cc(-c3ccccc3)nc2c1 [Compound 85, (2R,6R,14aR,16aS,Z)-N-(cyclopropylsulfonyl)-2-(7-methoxy-2-phenylquinolin-4-yloxy)-5,16-dioxo-6-(2-oxo-2-(4-(pyrrolidine-1-carbonyl)piperazin-1-yl)ethyl)-1,2,3,5,6,7,8,9,10,11, 13a,14,14a,15,16,16a-hexadecahydrocyclopropa [e]pyrrolo[1,2-a][1,4] diazacyclopentadecine-14a-carboxamide]	> 6.00
COc1ccc2nc(-c3ccccn3)cc(C(=O)N[C@@H]3C[C@H]4C(=O)N[C@]5(C(=O)NS(=O)(=O)C6CC6)C[C@H]5/C=C\CCCCC[C@H](CC(=O)N5CCCCC5)C(=O)N4C3)c2c1 [Compound 96, (2R,6R,14aR,16aS,Z)-N-(cyclopropylsulfonyl)-2-(6-methoxy-2-(pyridin-2-yl)quinoline-4-carboxamido)-5,16-dioxo-6-(2-oxo-2-(piperidin-1-yl)ethyl)-1,2,3,5,6,7,8,9,10,11, 13a,14,14a,15,16,16a-hexadecahydrocyclopropa [e]pyrrolo[1,2-a][1,4] diazacyclopentadecine-14a-carboxamide]	> 6.00

Reference: patent US8697641B2, “4-amino-4-oxobutanoyl peptide cyclic analogues, inhibitors of viral replication” (Achillion Pharmaceuticals, Inc., priority 2008, dated 2014)
